Source: US20240207212A1, “METHODS AND COMPOSITIONS FOR TREATING INFLAMMATION” (priority 2017, published 2024)

How the values were obtained:
[1] = target: P-gp (Homo sapiens, UniProt P08183); assay: Semi-quantitative MS analysis of enriched AMEND preparations from control and P-gp knockdown T84 cells; conditions: for Average (relative abundance, normalized to anandamide-d8 standard): anandamide-d8 standard at 1 μg/μL
Description: Generation of P-gp knockdown T84 cell lines. Purified DNA containing shRNA constructs targeting the mdr1a gene in a pLK0.1 plasmid background was obtained from the UMass RNAi core. Constructs were as follows: B4 (Clone ID: TRCN0000059683), B5 (Clone ID: TRCN0000059684), B6 (Clone ID: TRCN0000059685), B7 (Clone ID: TRCN0000059686), B8 (Clone ID: TRCN0000059687). Lentiviruses were produced by transfecting packaging cells (293T) with psPAX2, pMD.2G, and pLK0.1 plasmid constructs, using Trans-IT-LT1 lipid (Mirus Bio). After 48 hours, lentiviral supernatants were harvested, combined with 8 μg/mL polybrene (Sigma-Aldrich) and applied to T84 cells in 20% confluent monolayers. This process was repeated 24 hours later, and 48 hours following the second transfection, resistant cells were selected with 5 μg/mL puromycin.
Production of enriched AMEND. T84 cells were grown as confluent monolayers in 162 cm^2 flasks and equilibrated in Hanks Buffered Saline Solution with Mg^2+/Ca^2+ (HBSS+/+) at 37° C., 5% CO2. […] Cell supernatants collected over the course of five hours were pooled from 30 flasks, lyophilized, resuspended in water and ultrafiltered through Amicon 1,000-Da cutoff membrane (Millipore) with N2 positive pressure. Samples were captured on a C18 Bakerbond® SepPak column, washed with water and hexane, eluted with methanol, dried under N2 gas and stored at −80° C. Before use in migration experiments, samples were resuspended in HBSS+/+as needed. For screening in the DiscoveRx GPCR β-arrestin activity assay (Fremont, CA), samples were resuspended in PBS to provide a 1000× solution for screening.
LC/MS analysis of AMEND. MeOH-eluted preparations as above were dried under a stream of N2 (g), re-suspended in MeOH/buffer and separated by HPLC using a Vydac (Hesperia, CA) C18 (10 um; 300 Å) semi-preparative column ([…]). Active AMEND fractions were characterized by HPLC/Mass spectrometry (Genesis C18 (4 um, 120 Å) analytical HPLC column (4.6×150 mm) equilibrated with 5 mM triethylamine acetic acid (pH 7.2) with the effluent analyzed by using a Finnigan LCQDeca electrospray mass spectrometer.
Selected samples were analyzed for high mass accuracy determination and solubilized in 50:50 acetonitrile:H2O with 0.2% formic acid. A MAXIS-HD ultra-high resolution quadrupole time-of-flight (UHR-ESI-QTOF) mass spectrometer (Bruker Daltonik GmbH, Bremen, Germany) was used; this was coupled to a syringe driver (Hamilton, Bonaduz, Switzerland) with the sample solution being infused at a rate of 3 μL/min.
Nitrogen acted as the nebulizing gas, applied at a pressure of 2 bar. The drying gas was also nitrogen, supplied at a flow rate of 8 L/min and a temperature of 200° C. Positive ion mode was used with a corresponding capillary voltage of −4500V. Only full scan data was acquired. For each batch of samples a solution of 5 mM sodium formate clusters was also analysed. This acted as an external data file calibrant over the mass range 75-1000 m/z. The recalibrated detected mass and isotope pattern were used in the FindFormula tool to generate a list of potential theoretical formulae within 2 mDa of the detected mass. The detected isotope pattern was used to sort this list.
Data acquisition and automated processing was controlled via Compass OpenAccess 1.7 software (Bruker Daltonik GmbH, Bremen, Germany), and data processing was carried out using DataAnalysis 3.4 (Bruker Daltonik GmbH, Bremen, Germany). At each step care was taken to avoid sample degradation and oxidation by maintaining them on ice and under N2 gas as much as possible. Relative quantification by ion intensities was performed by the summation of intensities for protonated and sodiated ions to compensate for possible variation in adduct formation due to varying biological sodium levels.
With respect to Table 2, semi-quantitative MS analysis was performed to compare enriched AMEND preparations from control T84 cells to those with shRNA-mediated P-gp knockdown (B4-mdr1a and B5-mdr1a).

[2] = system: HXA3-induced neutrophil migration; assay: 96-well neutrophil migration assay (modified Boyden chamber, cell-free); type: cell-based, human; conditions: for AMEND inhibitory activity of purified compounds in the cell-free migration assay: FIG. 2F
Procedure: Supernatants from T84 epithelial monolayers were enriched for lipids and tested for ability to inhibit HXA3-induced migration in a 96-well modified Boyden chamber assay (FIG. 2A). In order to compare across experiments with different donors, migration values within individual experiments were normalized to enriched HXA3 with vehicle treatment. […] FIG. 2C performed as in FIG. 2A, but prior to use in the migration assays enriched T84 supernatants were pretreated with FAAH or MAGL at 37 °C for 30 min. […] Commercially available endocannabinoids and related compounds were tested in the 96 well migration assay (FIG. 2F). Compounds were used at the highest concentration at which they were soluble in PBS. Data are mean+/−SEM of at least 3 independent experiments, *=p<0.05 and **=p<0.01 by one-way ANOVA.
96-well neutrophil migration.
Purified compounds used in migration assays.

[3] = target: MRP1 (Homo sapiens, UniProt P33527); conditions: low affinity substrate of MRP1; cited from earlier work
[4] = system: neutrophil migration across NIH-H292 cells infected with Streptococcus pneumoniae; assay: In vitro PMN transepithelial migration across H292 monolayers infected with S. pneumoniae; type: cell-based, human; conditions: 100 μM pretreatment before infection with 10 MOI Streptococcus pneumoniae, vs mock-treated (FIG. 19A, FIG. 20D)
Procedure: S. pneumoniae can induce PMN transepithelial migration across model lung epithelia where a well-established in vitro model system is utilized. Briefly, H292 cells are seeded on permeable supports to form a barrier, thereby mimicking the in vivo architecture. Freshly isolated human neutrophils are then applied to the basolateral chamber of the transwell, allowing the neutrophils to transverse the epithelial layer in response to chemoattractants released by the epithelium.
Using an in vitro model of neutrophil (PMN) migration, we examined the results of MRP2 inhibition. NIH-H292 cells were incubated with 100 μM of the MRP2 inhibitor Probenecid (horizontal striped) or mock treated with PBS (black) before infection. Both control and probenecid treated cells were then washed and infected with 10 MOI Streptococcus pneumoniae. Neutrophils were placed in the basolateral chamber of the membrane construct and allowed to migrate post-infection. Neutrophils that have traveled to the apical chamber were quantified with a modified myeloperoxidase assay against a standard number of neutrophils. Shown in FIG. 20D is a representative data set that has been repeated at least 3 times. […] Uninfected cells are represented in white, labeled “Buffer”. Statics performed using unpaired T-test.

[5] = system: C57BL/6 mice infected with Streptococcus pneumoniae; assay: S. pneumoniae lung infection of mice with MRP2 inhibition; type: in vivo
Procedure: FIGS. 19A-19E. MRP2 inhibition in vivo. Using an in vitro model of neutrophil migration, we examined the results of MRP2 inhibition. MRP2 inhibition via Probenecid treatment results in a reduction of neutrophils migrating in a basolateral-to-apical direction (FIG. 19A). Following this in vitro result, C57/B16 mice were treated with either PBS or Probenecid and subsequently infected with Streptococcus pneumoniae. Mice treated with probenecid had fewer Cd11b-positive/Ly6g-positive cells (neutrophils) in the bronchoalveolar lavage (BAL) isolated from infected lungs (FIG. 19B).
S. pneumoniae infection under conditions where MRP2 function was impeded with probenecid was examined. C57BL/6 mice were infected with between 1×10^5 and 3×10^5 bacteria via the trachea, leading to lobar pneumonia and progressing to bacteremia and sepsis, after which the mice succumb to infection. Probenecid was delivered 3 hours prior to infection as a primer and again at 3-hours post-infection.

[6] = B4-mdr1a P-gp knockdown T84 cells
[7] = B4-mdr1a P-gp knockdown vs control T84 cells
[8] = B5-mdr1a P-gp knockdown T84 cells
[9] = B5-mdr1a P-gp knockdown vs control T84 cells
[10] = used at 0.01 mg/mL (highest concentration soluble in PBS, diluted 1:10)

P-gp, sequence (P08183 whole entry): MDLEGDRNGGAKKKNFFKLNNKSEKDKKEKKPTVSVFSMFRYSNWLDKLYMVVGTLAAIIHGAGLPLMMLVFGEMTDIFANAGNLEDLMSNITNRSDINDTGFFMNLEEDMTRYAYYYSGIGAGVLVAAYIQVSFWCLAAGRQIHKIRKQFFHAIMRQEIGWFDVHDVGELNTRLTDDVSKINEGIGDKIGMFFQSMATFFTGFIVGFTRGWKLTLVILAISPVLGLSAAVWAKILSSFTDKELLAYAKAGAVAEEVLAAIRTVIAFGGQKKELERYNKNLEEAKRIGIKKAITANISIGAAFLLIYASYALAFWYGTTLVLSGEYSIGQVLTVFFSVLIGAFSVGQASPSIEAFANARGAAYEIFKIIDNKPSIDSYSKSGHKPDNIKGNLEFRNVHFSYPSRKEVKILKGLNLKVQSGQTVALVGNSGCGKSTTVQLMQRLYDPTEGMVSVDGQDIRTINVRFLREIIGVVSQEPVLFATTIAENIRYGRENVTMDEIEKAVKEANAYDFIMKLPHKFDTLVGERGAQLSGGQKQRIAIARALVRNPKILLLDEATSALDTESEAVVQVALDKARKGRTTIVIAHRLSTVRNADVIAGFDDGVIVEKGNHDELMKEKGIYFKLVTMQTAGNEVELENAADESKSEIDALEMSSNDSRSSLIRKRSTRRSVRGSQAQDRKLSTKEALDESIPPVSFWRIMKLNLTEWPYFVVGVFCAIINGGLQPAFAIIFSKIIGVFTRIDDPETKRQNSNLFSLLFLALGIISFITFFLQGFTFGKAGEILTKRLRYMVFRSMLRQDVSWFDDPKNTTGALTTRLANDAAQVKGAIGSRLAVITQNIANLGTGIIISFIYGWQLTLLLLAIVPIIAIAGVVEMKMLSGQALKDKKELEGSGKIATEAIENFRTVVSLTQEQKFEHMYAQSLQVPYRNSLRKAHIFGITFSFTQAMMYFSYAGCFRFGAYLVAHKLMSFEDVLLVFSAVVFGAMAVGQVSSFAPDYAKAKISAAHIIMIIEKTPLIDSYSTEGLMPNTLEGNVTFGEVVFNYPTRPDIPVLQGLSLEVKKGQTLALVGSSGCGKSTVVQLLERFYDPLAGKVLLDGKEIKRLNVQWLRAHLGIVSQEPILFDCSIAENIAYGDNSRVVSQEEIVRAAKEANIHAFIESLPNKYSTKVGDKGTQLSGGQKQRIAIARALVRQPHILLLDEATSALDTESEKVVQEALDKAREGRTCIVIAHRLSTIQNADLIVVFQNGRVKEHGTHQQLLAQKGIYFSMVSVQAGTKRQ
MRP1, sequence (P33527 whole entry): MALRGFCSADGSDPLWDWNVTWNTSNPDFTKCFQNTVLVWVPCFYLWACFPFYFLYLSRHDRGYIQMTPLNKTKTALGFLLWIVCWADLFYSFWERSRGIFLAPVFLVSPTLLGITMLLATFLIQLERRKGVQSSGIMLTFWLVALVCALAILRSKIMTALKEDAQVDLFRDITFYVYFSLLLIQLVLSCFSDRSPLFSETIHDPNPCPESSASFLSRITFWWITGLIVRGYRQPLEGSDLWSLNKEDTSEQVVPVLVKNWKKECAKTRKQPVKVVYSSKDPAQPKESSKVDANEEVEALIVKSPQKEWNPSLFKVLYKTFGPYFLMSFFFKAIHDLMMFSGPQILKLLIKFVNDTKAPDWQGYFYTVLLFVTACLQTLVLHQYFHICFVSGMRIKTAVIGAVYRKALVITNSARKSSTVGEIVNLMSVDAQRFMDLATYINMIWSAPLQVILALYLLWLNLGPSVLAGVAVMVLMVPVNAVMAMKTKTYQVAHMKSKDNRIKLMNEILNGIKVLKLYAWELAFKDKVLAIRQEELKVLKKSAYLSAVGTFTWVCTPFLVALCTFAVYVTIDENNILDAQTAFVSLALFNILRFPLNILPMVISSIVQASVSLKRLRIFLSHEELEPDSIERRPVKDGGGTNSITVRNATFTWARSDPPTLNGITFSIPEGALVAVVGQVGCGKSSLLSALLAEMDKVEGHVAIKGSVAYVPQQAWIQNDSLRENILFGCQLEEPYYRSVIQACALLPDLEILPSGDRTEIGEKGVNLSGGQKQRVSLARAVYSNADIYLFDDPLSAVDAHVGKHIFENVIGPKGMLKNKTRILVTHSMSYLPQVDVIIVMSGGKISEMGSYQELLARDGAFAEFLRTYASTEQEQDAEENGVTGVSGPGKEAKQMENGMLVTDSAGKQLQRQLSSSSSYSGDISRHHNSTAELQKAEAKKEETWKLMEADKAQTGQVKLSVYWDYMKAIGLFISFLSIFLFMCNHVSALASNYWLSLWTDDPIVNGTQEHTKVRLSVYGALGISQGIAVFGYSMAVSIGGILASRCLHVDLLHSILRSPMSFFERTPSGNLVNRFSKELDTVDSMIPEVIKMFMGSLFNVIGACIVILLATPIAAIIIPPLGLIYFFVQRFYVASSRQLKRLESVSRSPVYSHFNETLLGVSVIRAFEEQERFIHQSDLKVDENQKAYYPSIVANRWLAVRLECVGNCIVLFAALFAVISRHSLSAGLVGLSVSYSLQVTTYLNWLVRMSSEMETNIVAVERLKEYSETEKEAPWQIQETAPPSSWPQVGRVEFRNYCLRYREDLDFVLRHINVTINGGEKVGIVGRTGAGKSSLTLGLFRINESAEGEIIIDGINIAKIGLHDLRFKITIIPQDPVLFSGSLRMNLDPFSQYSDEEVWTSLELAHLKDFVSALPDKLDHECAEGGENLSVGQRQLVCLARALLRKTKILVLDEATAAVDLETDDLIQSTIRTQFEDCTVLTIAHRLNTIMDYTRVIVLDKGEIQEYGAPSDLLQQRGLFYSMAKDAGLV

CCCCC/C=C\C/C=C\C/C=C\C/C=C\CCCC(=O)OC(CO)CO [2-Arachidonoyl Glycerol (2-AG), 2-arachidonoyl glycerol]
Average (relative abundance, normalized to anandamide-d8 standard) [1, 6]: 32.17
% of Control [1, 7]: 91%
Average (relative abundance, normalized to anandamide-d8 standard) [1, 8]: 29.47
% of Control [1, 9]: 83%
Average (relative abundance, normalized to anandamide-d8 standard) ([1]; control T84 cells): 35.53

CCCCC/C=C\C/C=C\C/C=C\C/C=C\CCCC(=O)NCCO [Anandamide (AEA), Arachidonoyl ethanolamide]
AMEND inhibitory activity of purified compounds in the cell-free migration assay [2, 10]: significant inhibitory activity

N[C@@H](CCC(=O)N[C@@H](CS)C(=O)NCC(=O)O)C(=O)O [Glutathione]
Km [3]: 1 to 5 mM

CCCCC[C@H](O)/C=C/C=C\C=C\C=C\[C@@H](O)[C@@H](O)CCCC(=O)O [Lipoxin A4]
inhibitory activity on HXA3-induced migration after treatment with FAAH ([2]; pretreated with FAAH at 37°C for 30 min, Lipoxin used at 10 nM (FIG. 2C, FIG. 8)): not sensitive
inhibitory activity on HXA3-induced migration after treatment with MAGL ([2]; pretreated with MAGL at 37°C for 30 min, Lipoxin used at 10 nM (FIG. 2C, FIG. 8)): not sensitive

CCCCC/C=C\C/C=C\C/C=C\C/C=C\CCCC(=O)NCCc1ccc(O)c(O)c1 [N-Arachidonoyl Dopamine]
Average (relative abundance, normalized to anandamide-d8 standard) [1, 6]: 1.97
Average (relative abundance, normalized to anandamide-d8 standard) [1, 8]: 1.90
Average (relative abundance, normalized to anandamide-d8 standard) ([1]; control T84 cells): 0.00

CCCCC/C=C\C/C=C\C/C=C\C/C=C\CCCCOC(CO)CO [Noladin ether]
Average (relative abundance, normalized to anandamide-d8 standard) [1, 6]: 154.03
% of Control [1, 7]: 461%
Average (relative abundance, normalized to anandamide-d8 standard) [1, 8]: 56.23
% of Control [1, 9]: 168%
Average (relative abundance, normalized to anandamide-d8 standard) ([1]; control T84 cells): 33.43

CCCCCCCC/C=C\CCCCCCCC(=O)NCCO [Oleoyl ethanolamide (OEA), Oleoyl ethanolamide]
AMEND inhibitory activity of purified compounds in the cell-free migration assay [2, 10]: significant inhibitory activity

CCCN(CCC)S(=O)(=O)c1ccc(C(=O)O)cc1 [Probenecid]
number of neutrophils migrating basolateral-to-apical across infected H292 monolayers [4]: effectively reduced
number of neutrophils migrating basolateral-to-apical across infected H292 monolayers ([4]; listed as probenecid): significantly fewer
reduction in bacteremia ([5]; 48 post-infection, no longer statistically significant (FIG. 19C)): 10 fold
number of bacteria in the lung ([5]; 48 hours post-infection): the same
other granulocytes in the mouse lung ([5]; Cd11b+/Cd45+/Ly6g- granulocytes (FIG. 19D)): no reduction
lower CFU in the blood of mice that developed bacteremia, compared to PBS-treated mice ([5]; D1 post-infection (FIG. 19C)): approximately 10 fold
cases of bacteremia ([5]; D1 post-infection, vs PBS-treated mice (FIG. 19C)): fewer cases
fewer neutrophils in bronchoalveolar lavage fluid (BALF) than PBS-treated mice ([5]; Day 1 post-infection, delivered 3 hours prior to and 3 hours post-infection (FIG. 19B)): 35%
difference in the bacterial CFU in mice that did not develop bacteremia ([5]; failed to reach statistical significance (FIG. 19E)): approximately 2 fold

CC/C=C\C/C=C\C/C=C\CCCCCCCC(=O)NCCO [α-LEA, α-Linolenoyl Ethanolamide]
AMEND inhibitory activity of purified compounds in the cell-free migration assay ([2]; used at 0.005 mg/mL (highest concentration soluble in PBS, diluted 1:10)): significant inhibitory activity
